Data from patent US20250326722A1 (SHANGHAI HANSOH BIOMEDICAL CO., LTD., priority 2022, published 2025).
pIC50: −log10 of the molar value.

How the values were obtained:
[1] = Pharmacokinetic determination in mice (plasma); type: in vivo, C57BL/6J mice; conditions: C57 mice, PO administration, 5 mpk; for AUC(0-inf) / half-life / MRT / Cmax: male, C57BL/6J, mouse, 5 mg/kg; for AUC(0-inf): read-out: Area under the curve AUC0-∞; for half-life: read-out: Half-life t1/2 (converted); for MRT: read-out: Mean residence time MRT; for Cmax: read-out: Plasma concentration Cmax
Procedure: C57BL/6J mice were used as test animals to study the pharmacokinetic behavior of the compounds of the present disclosure in mice (plasma) after oral and intravenous administration.
C57 mice, male, purchased from Shanghai Bk Lab Animal Co., Ltd., with animal production license number (SCXK (Shanghai) 2013-0006 NO.311620400001794).
• Preparation of oral drug: 10% Solutol HS15
10 g of Solutol HS15 solid was weighed, dissolved in 90 mL of pure water, uniformly mixed, stirred, and ultrasonically treated to form a clear solution.
The compound of the present disclosure was weighed and dissolved in this solution, uniformly shaken, and ultrasonically treated for 15 minutes to obtain a colorless clear solution with a concentration of 0.5 mg/mL. • Preparation of intravenous drug: 5% DMSO+10% Solutol HS15+85% PBS […]
3 male C57 mice were fasted overnight and then respectively administered PO at a dose of 5 mg/kg and a volume of 10 mL/kg. […]
Before and after administration of mice, 0.04 mL of blood was collected from the orbit at 0.083 (iv), 0.25, 0.5, 1, 2, 4, 8, and 24 hours, and placed in EDTA-K2 test tubes, which was centrifuged at 6000 rpm at 4° C. for 6 min to separate plasma which was stored at −80° C.; and the […] were fed 4 h after administration.
The final determination results were obtained by using an LCMS/MS method.
The main pharmacokinetic parameters were calculated using WinNonlin 6.1.

[2] = target: PCSK9 secreted by HepG2 cells (Homo sapiens (Human), UniProt Q8NBP7); assay: Effect on the concentration of PCSK9 secreted by HepG2 cells (ELISA); type: cell-based; conditions: 48 hours incubation, read-out: Inhibitory activity on PCSK9, IC50
From the text: • 1. Experimental objective: To detect the inhibitory effect of the compounds on PCSK9. • 2. Experimental instruments and reagents: • 2.1 Instruments:
• CircuLex Human PCSK9 ELISA kit (MBL: CY-8079); • DMEM (Gibco: 31966-021) • FBS (Sigma: S5394) • Compound plate (Thermo: 1353506) • Complete culture medium: DMEM+10% FBS+1×P/S; • Experimental culture medium: DMEM+10% FBS • Cell strain: HepG2 (ATCC: HB-8065)
A self-adhesive seal was applied, the plate was placed on a plate shaker at room temperature, gently shaken, uniformly mixed, and incubated for 1 hour. • 11) The plate was placed on the plate washer, the washing liquid was set to 350 μL per well, and the plate was washed 4 times repeatedly. • 12) 100 μL/well of an HRP-conjugated detection antibody was added, a self-adhesive seal was applied, and the plate was placed on the plate shaker, well mixed uniformly, and incubated for 1 hour. • 13) The plate was placed on the plate washer, the washing liquid was set to 350 μL per well, and the plate was washed 4 times repeatedly. • 14) 100 μL/well of Substrate reagent was added, and the plate was placed in the dark, applied with a self-adhesive seal, placed on the plate shaker, well mixed uniformly, and incubated for 10-20 minutes. • 15) 100 μL/well of Stop solution (1N H2SO4) was added and mixed uniformly. • 16) The optical density (OD) value in each well was measured in sequence at a wavelength of 450 nm by the microplate reader. Detection was carried out within 30 min after the reaction was stopped.
After the OD values were read by the microplate reader, the OD value of the 0-concentration standard in the standard group was subtracted from the OD values of the standards, control group, and samples to obtain the actual OD values for these wells. A standard curve was plotted with Graphpad and the concentration of the sample was calculated. If the dilution was performed during the sample detection, the calculated sample concentration was necessarily multiplied by the corresponding dilution ratio in the final calculation, which was the actual concentration of the sample. Inhibition rate=(actual concentration in control-actual concentration in sample)/actual concentration in control*100. According to the inhibition rates corresponding to the different concentrations, IC50 was derived by Graphpad.

Sequence of PCSK9 secreted by HepG2 cells (Q8NBP7 153-692): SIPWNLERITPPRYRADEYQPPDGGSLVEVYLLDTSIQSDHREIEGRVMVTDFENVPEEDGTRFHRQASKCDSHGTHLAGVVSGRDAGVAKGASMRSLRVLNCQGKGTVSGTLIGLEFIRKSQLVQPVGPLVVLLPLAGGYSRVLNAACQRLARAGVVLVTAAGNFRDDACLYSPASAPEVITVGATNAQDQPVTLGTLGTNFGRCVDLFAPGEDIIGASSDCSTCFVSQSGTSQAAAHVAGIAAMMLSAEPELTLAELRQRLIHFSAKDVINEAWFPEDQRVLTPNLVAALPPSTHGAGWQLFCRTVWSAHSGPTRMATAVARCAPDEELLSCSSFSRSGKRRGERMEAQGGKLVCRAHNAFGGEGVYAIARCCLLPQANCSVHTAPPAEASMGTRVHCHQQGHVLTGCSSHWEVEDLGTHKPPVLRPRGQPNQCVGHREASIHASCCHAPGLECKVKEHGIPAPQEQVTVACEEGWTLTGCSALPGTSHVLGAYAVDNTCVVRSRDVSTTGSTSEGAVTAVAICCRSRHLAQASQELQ
Sequence of PCSK9 secreted by HepG2 cells (Q8NBP7 31-152 partner): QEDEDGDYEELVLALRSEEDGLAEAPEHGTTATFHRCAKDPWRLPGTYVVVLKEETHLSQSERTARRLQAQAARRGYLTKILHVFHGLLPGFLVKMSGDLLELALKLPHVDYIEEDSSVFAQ

| Compound | pIC50 [2] | also measured |
| --- | --- | --- |
| Cc1ccn2nc(N[C@H]3CC[C@H](Nc4ccc(-n5ccccc5=O)cn4)C3)nc2c1 [Example 87, 6′-(((1S,3S)-3-((7-methyl-[1,2,4]triazolo[1,5-a]pyridin-2-yl)amino)cyclopentyl)amino)-2H-[1,3′-bipyridinyl]-2-one] | – | Time to peak tmax [1]: 0.25 h; AUC(0-inf) [1]: 10700 ng·h/mL; half-life [1]: 4.7 h; MRT [1]: 3.1 h; Cmax [1]: 5510 ng/mL |
| O=S1(=O)c2ncccc2CN1c1ccc(N[C@H]2CC[C@H](Nc3ncc(OC(F)F)cn3)C2)nc1 [Example 121] | 4.56 | – |
| O=c1c(-c2ccc(N[C@H]3CC[C@H](Nc4ncc(OC(F)F)cn4)C3)nc2)cnc2ccccn12 [Example 108, 3-(6-(((1S,3S)-3-((5-(difluoromethoxy)pyrimidin-2-yl)amino)cyclopentyl)amino)pyridin-3-yl)-4H-pyridino[1,2-a]pyrimidin-4-one] | 5.42 | – |
| O=S1(=O)c2ncccc2CN1c1ccc(N[C@H]2CC[C@H](Nc3ncc(C(F)(F)F)nn3)C2)nc1 [Example 154, 2-(6-(((1S,3S)-3-((6-(trifluoromethyl)-1,2,4-triazin-3-yl)amino)cyclopentyl)amino)pyridin-3-yl)-2,3-dihydroisothiazolo[5,4-b]pyridine 1,1-dioxide] | 4.88 | – |
| O=C1c2cc(C(F)(F)F)ncc2CN1c1ccc(N[C@H]2CC[C@H](Nc3ncc(C(F)(F)F)nn3)C2)nc1 [Example 152, 6-(Trifluoromethyl)-2-(6-(((1S,3S)-3-((6-(trifluoromethyl)-1,2,4-triazin-3-yl)amino)cyclopentyl)amino)pyridin-3-yl)-2,3-dihydro-1H-pyrrolo[3,4-c]pyridin-1-one] | 5.82 | Time to peak tmax [1]: 2 h; AUC(0-inf) [1]: 65500 ng·h/mL; half-life [1]: 9.6 h; MRT [1]: 12.1 h; Cmax [1]: 5290 ng/mL |
| O=C1c2cc(F)cnc2CN1c1ccc(N[C@H]2CC[C@H](Nc3ncc(OC(F)F)cn3)C2)nc1 [Example 137] | 5.13 | – |
| O=C1c2ncc(F)cc2CN1c1ccc(N[C@H]2CC[C@H](Nc3ncc(OC(F)F)cn3)C2)nc1 [Example 136] | 5.02 | – |
| O=C1c2cnccc2CN1c1ccc(N[C@H]2CC[C@H](Nc3ncc(OC(F)F)cn3)C2)nc1 [Example 75, 2-(6-(((1S,3S)-3-((5-(difluoromethoxy)pyrimidin-2-yl)amino)cyclopentyl)amino)pyridin-3-yl)-1,2-dihydro-3H-pyrrolo[3,4-c]pyridin-3-one] | 5.05 | – |
| O=C1c2nc(C3CC3)ccc2CN1c1ccc(N[C@H]2CC[C@H](Nc3ncc(OC(F)F)cn3)C2)nc1 [Example 141] | 5.74 | – |
| Cc1cnn2c(-c3ccc(N[C@H]4CC[C@H](Nc5ncc(OC(F)F)cn5)C4)nc3)cccc12 [Example 117, (1S,3S)—N1-(5-(difluoromethoxy)pyrimidin-2-yl)-N3-(5-(3-methylpyrazolo[1,5-a]pyridin-7-yl)pyridin-2-yl)cyclopentane-1,3-diamine] | 5.44 | – |
| O=S1(=O)CCCN1c1ccc(N[C@H]2CC[C@H](Nc3ncc(OC(F)F)cn3)C2)nc1 [Example 91, 2-(6-(((1S,3S)-3-((5-(difluoromethoxy)pyrimidin-2-yl)amino)cyclopentyl)amino)pyridin-3-yl)-1,1-dioxoisothiazolane] | 4.66 | – |
| N#Cc1cnn2c(-c3ccc(N[C@H]4CC[C@H](Nc5ncc(OC(F)F)cn5)C4)nc3)ccnc12 [Example 118, 7-(6-(((1S,3S)-3-((5-(difluoromethoxy)pyrimidin-2-yl)amino)cyclopentyl)amino)pyridin-3-yl) pyrazolo[1,5-a]pyrimidine-3-carbonitrile] | 6.30 | – |
| CC1(C)CCCN(c2ccc(N[C@H]3CC[C@H](Nc4ncc(OC(F)F)cn4)C3)nc2)S1(=O)=O [Example 120] | 4.87 | – |
| O=C1c2cccnc2CN1c1ccc(N[C@H]2CC[C@H](Nc3ncc(OC(F)(F)Br)cn3)C2)nc1 [Example 123, 6-(6-(((1S,3S)-3-((5-(bromodifluoromethoxy)pyrimidin-2-yl)amino)cyclopentyl)amino)pyridin-3-yl)-6,7-dihydro-5H-pyrrolo[3,4-b]pyridin-5-one] | 5.48 | – |
| CC1(C)C(=O)N(c2ccc(N[C@H]3CC[C@H](Nc4ncc(OC(F)F)cn4)C3)nc2)c2cccnc21 [Example 150] | 4.84 | – |
| O=C1c2cc(C(F)(F)F)ncc2CN1c1ccc(N[C@H]2CC[C@H](Nc3ncc(OC(F)F)cn3)C2)nc1 [Example 138, 2-(6-(((1S,3S)-3-((5-(difluoromethoxy)pyrimidin-2-yl)amino)cyclopentyl)amino)pyridin-3-yl)-6-trifluoromethyl-2,3-dihydro-1H-pyrrolo[3,4-c]pyridin-1-one] | 6.30 | – |
| Cc1cc2c(cn1)CN(c1ccc(N[C@H]3CC[C@H](Nc4ncc(C5CC5)nn4)C3)nc1)C2=O [Example 160] | 5.21 | – |
| CC(C)(O)c1cccn(-c2ccc(N[C@H]3CC[C@H](Nc4ncc(OC(F)F)cn4)C3)nc2)c1=O [Example 64, 6′-(((1S,3S)-3-((5-(difluoromethoxy)pyrimidin-2-yl)amino)cyclopentyl)amino]-3-(2-hydroxyprop-2-yl)-2H-[1,3′-bipyridinyl]-2-one] | 5.00 | – |
| O=C1c2ncc(F)cc2CN1c1ccc(N[C@H]2CC[C@H](Nc3nc4cc(C(F)(F)F)ccn4n3)C2)nc1 [Example 163, 3-Fluoro-6-(6-(((1S,3S)-3-((7-(trifluoromethyl)-[1,2,4]triazolo[1,5-a]pyridin-2-yl)amino)cyclopentyl)amino)pyridin-3-yl)-5,6-dihydro-7H-pyrrolo[3,4-b]pyridin-7-one] | 4.92 | – |
| O=c1ccccn1-c1ccc(N[C@H]2CC[C@H](Nc3nsc(C4CC4)n3)C2)nc1 [Example 78, 6′-(((1S,3S)-3-((5-cyclopropyl-1,2,4-thiadiazol-3-yl)amino)cyclopentyl)amino)-2H-[1,3′-bipyridinyl]-2-one] | 4.85 | – |
| CC1(C)CCN(c2ccc(N[C@H]3CC[C@H](Nc4ncc(OC(F)F)cn4)C3)nc2)S1(=O)=O [Example 119] | 4.76 | – |
| Cc1nc(N[C@H]2CC[C@H](Nc3ccc(N4Cc5cccnc5C4=O)cn3)C2)nc2ccccc12 [Example 131, 6-(6-(((1S,3S)-3-((4-methylquinazolin-2-yl)amino)cyclopentyl)amino)pyridin-3-yl)-5,6-dihydro-7H-pyrrolo[3,4-b]pyridin-7-one] | 5.70 | – |
| O=c1ccccn1-c1ccc(N[C@H]2CC[C@H](Nc3ncc(C4CC4)nn3)C2)nc1 [Example 63, 6′-(((1S,3S)-3-((6-cyclopropyl-1,2,4-triazin-3-yl)amino)cyclopentyl)amino)-2H-[1,3′-bipyridinyl]-2-one] | 4.98 | – |
| FC(F)Oc1cnc(N[C@H]2CC[C@H](Nc3ccc(-c4cccc5ncnn45)cn3)C2)nc1 [Example 139, (1S,3S)—N1-(5-([1,2,4]triazolo[1,5-a]pyridin-5-yl)pyridin-2-yl)-N3-(5-(difluoromethoxy)pyrimidin-2-yl)cyclopentane-1,3-diamine] | 4.98 | – |
| O=c1n(-c2ccc(N[C@H]3CC[C@H](Nc4ncc(OC(F)F)cn4)C3)nc2)c2nccnc2n1C1CC1 [Example 97, 1-Cyclopropyl-3-(6-(((1S,3S)-3-((5-(difluoromethoxy)pyrimidin-2-yl)amino)cyclopentyl)amino)pyridin-3-yl)-1,3-dihydro-2H-imidazo[4,5-b]pyrazin-2-one] | 4.94 | – |
